Values quoted from earlier work in patent US20040234544A1, “Formulation containing (lyso-)phosphatidylserine for the prevention and treatment of stress states in warm blooded animals” (priority 2001, published 2004).
Read-outs that look alike come from different tables or passages of the source.

Experiments:
young adults = settings: 300 mg PS per day
persons under 40 years = persons under 40 years and persons whose brain function was average for their age
trained runners = settings: 300 or 600 mg PS per day over 15 days

## phosphatidylserine
Young adults
  mood: positive effect
  pulse rate: positive effect
  subjective stress sensitivity: positive effect
Persons under 40 years
  improvements under PS supplementation: no improvements were observed
Trained runners
  effect against muscle damage: protective effect against muscle damage
rats; old rats
  effect in stress-induced behaviour (body temperature): normalization of body temperature
rats; older rats
  effect in lesions of the stomach wall: positive effect
rats; young rats
  effect in lesions of the stomach wall: this effect was not observed
